Where a SMILES comes first, the peptide text is derived from it. Where no end group is shown, it is not given here.
Tests used:
[1] = test system: C. xerosis; test: MIC, modified two-fold microtitre broth dilution; type: cell-based, Corynebacterium xerosis
Source text: (§1) Bacterial strains for antimicrobial activity testing included Escherichia coli UB1005 and its antibiotic supersusceptible derivative DC2 (Richmond et al., Antimicrob. Agents Chemother. 10:215, 1976), Pseudomonas aeruginosa K799 and its antibiotic-supersusceptible derivative Z61 (Angus et al., Antimicrob. Agents Chemother. 21:299, 1982), Salmonella typhimurium 14028s and its defensin-supersusceptible derivative MS7953s (Fields et al., Science, 243:1059, 1989), Staphylococcus aureus ATCC25923 and a clinical isolate Staphylococcus aureus SAP1007. Other Gram-positive bacterial strains include Staphylococcus epidermidis (clinical isolate) and Enterococcus faecalis ATCC29212, Listeria monocytogenes, Corynebacterium xerosis, Streptococcus pneumoniae ATTC49619, Streptococcus pyogenes ATTC19615, Streptococcus mitis.
(§2) The minimal inhibitory concentration (MIC) of peptides was determined by a modified two-fold microtitre broth dilution method modified from that of Steinberg et al (Steinberg, Antimicrob. Agents Chemother. 41:1738, 1997). Using the classical method (Amsterdam, Antibiotics in Laboratory Medicine (Lorian, V., ed) pp. 72-78, 1991), higher concentrations of peptides tend to precipitate in the LB broth, thus the concentrations of peptides in the sequential wells are not accurate. Also the peptides stick to the most readily available (tissue-culture treated polystyrene) 96-well microtitre plates. Therefore the 2× series of dilutions was performed in Eppendoff tubes (polypropylene) before mixing with LB broth. Serial of two fold dilutions of peptides ranging from 640 μg/ml to 1.25 μg/ml were made in 0.2% BSA, 0.01% acetic acid buffer in the Eppendoff tubes. Ten μl of each concentration was added to each corresponding well of a 96-well microtiter plate (polypropylene cluster; Costar Corporation, Cambridge, Mass.). Bacteria were grown overnight and diluted 10-5 into fresh LB broth or Todd Hewitt broth for Streptococcus. LB medium contained 10 g/1l tryptone and 5 g/yeast extract, with no salt. Todd Hewitt contained 500 g/l beef heart infusion, 20 g/l bacto neopeptone, 2 g/l bacto dextrose, 2 g/l sodium chloride, 0.4 g/l disodium phosphate, 2.5 g/l sodium carbonate. One hundred […] containing about 10^4-10^5 CFU/ml of tested bacteria was added to each well. The plate was incubated at 37° C. overnight. The MIC was taken as the concentration at which greater than 90% of growth inhibition was observed.

[2] = test system: Strep. pyogenes; test: MIC, modified two-fold microtitre broth dilution; type: cell-based, Streptococcus pyogenes; details: for MIC Strep. pyogeness: Table IID, linear (Group 2): reduced forms of the peptides, Bac (Oxidized) as comparator
Source text: as §1, §2

[3] = test system: E.facaelis; test: MIC, modified two-fold microtitre broth dilution; type: cell-based, Enterococcus faecalis
Source text: as §1, §2

[4] = test system: Strep. pneumoniae; test: MIC, modified two-fold microtitre broth dilution; type: cell-based, Streptococcus pneumoniae; details: for MIC Strep. pneumonia: Table IID, linear (Group 2): reduced forms of the peptides, Bac (Oxidized) as comparator; for MIC S. pneumonia: Table IIIB, non-linear positive-charge modification derivatives
Source text: as §1, §2

[5] = test system: E.coli UB1005; test: MIC, modified two-fold microtitre broth dilution; type: cell-based, Escherichia coli
Source text: as §1, §2

[6] = test system: Staph. aureus; test: MIC, modified two-fold microtitre broth dilution; type: cell-based, Staphylococcus aureus
Source text: as §1, §2

[7] = test system: Listeria monocytogenes; test: MIC, modified two-fold microtitre broth dilution; type: cell-based
Source text: as §1, §2

[8] = test system: P.aeruginosa; test: MIC, modified two-fold microtitre broth dilution; type: cell-based, Pseudomonas aeruginosa
Source text: as §1, §2

[9] = test system: S.typhimurium; test: MIC, modified two-fold microtitre broth dilution; type: cell-based, Salmonella typhimurium
Source text: as §1, §2

[10] = test system: Strep. mitis; test: MIC, modified two-fold microtitre broth dilution; type: cell-based, Streptococcus mitis; details: for MIC Strep. mitis: Table IID, linear (Group 2): reduced forms of the peptides, Bac (Oxidized) as comparator
Source text: as §1, §2

[11] = test system: Human Red Blood Cells
[12] = test system: Staph. epidermidis; test: MIC, modified two-fold microtitre broth dilution; type: cell-based, Staphylococcus epidermidis
Source text: as §1, §2

[13] = Table IID, linear (Group 2): reduced forms of the peptides, Bac (Oxidized) as comparator
[14] = Table IIIB, non-linear positive-charge modification derivatives
[15] = Table IIC, linear (Group 2): reduced forms of the peptides, Bac (Oxidized) as comparator
[16] = table IIA, non-linear positive-charge modification derivatives
[17] = Table IVB, non-linear hydrophobicity modification derivatives
[18] = Table IVA, non-linear hydrophobicity modification derivatives

Compound | MIC C. xerosis [1, 13] [µg/mL] | MIC C. xerosis [1, 14] [µg/mL] | MIC Strep. pyogeness [2] [µg/mL] | MIC Strep. pyogenes [2, 14] [µg/mL] | MIC E.facaelis [3, 13] [µg/mL] | MIC E.facaelis [3, 14] [µg/mL] | MIC Strep. pneumonia [4] [µg/mL] | MIC S. pneumonia [4] [µg/mL] | MIC E.coli UB1005 [5, 15] [µg/mL] | MIC E.coli UB1005 [5, 16] [µg/mL] | MIC Staph. aureus [6, 13] [µg/mL] | MIC Staph. aureus [6, 14] [µg/mL] | MIC Listeria [7, 13] [µg/mL] | MIC Listeria [7, 14] [µg/mL] | MIC P. aeruginosa [8, 15] [µg/mL] | MIC P. aeruginosa [8, 16] [µg/mL] | MIC S. typhimurium [9, 15] [µg/mL] | MIC S. typhimurium [9, 16] [µg/mL] | Minimal Agglutinating Concentration, Oxidized Form [11] [µg/mL] | MIC Staph. epidermidis [12, 14] [µg/mL] | also measured
RRLCRIVVIRVCRR [Bac 2R, tested oxidized and reduced] | 0.25 | 1 | 16 | 8 | 4 | 32 | > 64 | > 64 | 4 | 2 | > 64 | 64 | 0.5 | < 0.125 | 16 | 4 | 32 | 4 | 64 | 8 | MIC against P. aeruginosa, times better than native bactenecin [8]: 2 X; MIC against S. typhimurium, times better than native bactenecin [9]: 2 X; MIC Strep. mitis [10]: 0.5 µg/mL; MIC S. mitis [10, 14]: 0.5 µg/mL; Minimal Agglutinating Concentration, Reduced Form [11]: 32 µg/mL; MIC Staph. epidermidis [12, 13]: 4 µg/mL
RLARIVVIRVAR-NH2 [Bac 2A-NH2, RLARIVVIRVAR-NH2] | – | – | – | – | – | – | – | – | – | – | – | – | – | – | – | – | – | – | > 64 | – | –
RLSRIVVIRVCR-NH2 [Bac S-NH2, RLSRIVVIRVCR-NH2] | – | – | – | – | – | – | – | – | – | – | – | – | – | – | – | – | – | – | > 64 | – | –
RRRCPIVVIRVCRR [Bac 3R, P, tested oxidized and reduced] | 0.5 | 4 | 16 | 8 | 64 | 32 | > 64 | > 64 | 8 | 2 | > 64 | > 64 | 2 | 0.5 | > 64 | 8 | > 64 | 8 | 64 | 16 | MIC Strep. mitis [10]: 0.5 µg/mL; MIC S. mitis [10, 14]: 1 µg/mL; Minimal Agglutinating Concentration, Reduced Form [11]: 16 µg/mL; MIC Staph. epidermidis [12, 13]: 16 µg/mL
RRRLCPIVIRVCRR [Bac 3R, P, (V), tested oxidized and reduced] | 0.5 | 4 | 8 | 4 | 32 | > 64 | > 64 | > 64 | 4 | 2 | > 64 | > 64 | 1 | 1 | 32 | 8 | 32 | 8 | > 64 | 16 | MIC Strep. mitis [10]: 1 µg/mL; MIC S. mitis [10, 14]: 1 µg/mL; Minimal Agglutinating Concentration, Reduced Form [11]: 32 µg/mL; MIC Staph. epidermidis [12, 13]: 8 µg/mL
RRLCRIVWVIRVCRR [Bac 2R, W, tested oxidized and reduced] | 2 | – | 32 | – | > 64 | – | 64 | – | > 64 | – | > 64 | – | 4 | – | > 64 | – | > 64 | – | 32 | – | MIC C. xerosis [1, 17]: 0.25 µg/mL; MIC Strep. pyogenes [2, 17]: 1 µg/mL; MIC E.facaelis [3, 17]: 2 µg/mL; MIC S. pneumoniae [4, 17]: 8 µg/mL; MIC E.coli UB1005 [5, 18]: 2 µg/mL; MIC Staph. aureus [6, 17]: 2 µg/mL; MIC Listeria [7, 17]: 0.25 µg/mL; MIC P. aeruginosa [8, 18]: 2 µg/mL; MIC S. typhimurium [9, 18]: 2 µg/mL; MIC Strep. mitis [10]: 2 µg/mL; MIC S. mitis [10, 17]: 0.25 µg/mL; Minimal Agglutinating Concentration, Reduced Form [11]: 8 µg/mL; concentration causing agglutination of human red blood cells [11]: 16000 to 32000 ng/mL; MIC Staph. epidermidis [12, 13]: 32 µg/mL; MIC Staph. epidermidis [12, 17]: 1 µg/mL
CC[C@H](C)[C@@H]1NC(=O)[C@H](C(C)C)NC(=O)[C@H](C(C)C)NC(=O)[C@H]([C@@H](C)CC)NC(=O)[C@@H]2CCCN2C(=O)[C@@H](NC(=O)[C@H](CCCNC(=N)N)NC(=O)[C@@H](N)CCCNC(=N)N)CSSC[C@@H](C(=O)N[C@@H](CCCNC(=N)N)C(=O)O)NC(=O)[C@H](C(C)C)NC(=O)[C@H](CCCNC(=N)N)NC1=O [Bac R, P, RRCPIVVIRVCR] (HELM PEPTIDE1{R.R.C.P.I.V.V.I.R.V.C.R}$PEPTIDE1,PEPTIDE1,3:R3-11:R3$$$V2.0) | – | – | – | – | – | – | – | – | – | – | – | – | – | – | – | – | – | – | > 64 | – | –
RLCPRVRIRVCR-NH2 (cysteine pairing not given here) [Bac 2R, P-NH2] | – | – | – | – | – | > 32 | – | – | – | 4 | – | > 32 | – | – | – | 16 | – | 32 | > 32 | 16 | –
RRCPIVVIRVCR-NH2 (cysteine pairing not given here) [Bac R, P-NH2] | – | 2 | – | 16 | – | > 64 | – | > 64 | – | 2 | – | 32 to 64 | – | 1 | – | 16 | – | 16 | > 64 | 32 | MIC S. mitis [10, 14]: 2 µg/mL
KKCPIVVIRVCK [Bac 3K, P, tested oxidized and reduced] | 4 | 16 | 64 | > 64 | > 64 | > 64 | > 64 | > 64 | > 64 | 16 | > 64 | > 64 | 4 | 8 | > 64 | > 64 | > 64 | 32 | > 64 | > 64 | MIC Strep. mitis [10]: 0.25 µg/mL; MIC S. mitis [10, 14]: 2 µg/mL; Minimal Agglutinating Concentration, Reduced Form [11]: 64 µg/mL; MIC Staph. epidermidis [12, 13]: > 64 µg/mL
RICRIVVIRCIR-NH2 (cysteine pairing not given here) [Bac 2I-NH2] | – | – | – | – | – | > 32 | – | – | – | 4 | – | 32 | – | – | – | 16 | – | 8 | 32 | 8 | –
RLSRIVVIRVSR-NH2 [Bac 2S-NH2, RLSRIVVIRVSR-NH2] | – | – | – | – | – | – | – | – | – | – | – | – | – | – | – | – | – | – | > 64 | – | –
